Earlier results in paper PMC6574176 (Biomaterials, 2019).

Conditions: rapidly bio-eliminated

In the case of `CC1(C)C(/C=C/C=C/C=C/C=C2\N(CCCCS(=O)(=O)O)c3ccc4ccccc4c3C2(C)C)=[N+](CCCCS(=O)(=O)[O-])c2ccc3ccccc3c21` [free ICG, Indocyanine Green], the “t1/2 of free ICG” value is given as 2 to 4 min.
